In patent publication US20220241249A1, “PHARMACEUTICAL COMPOSITION AND KIT CONTAINING NOVEL PENAM DERIVATIVE OR SALT THEREOF AND ONE OR MORE COMPOUNDS SELECTED FROM beta-LACTAMASE INHIBITORY COMPOUND AND ANTIBACTERIAL COMPOUND OR SALTS THEREOF” (priority 2019, published 2022):
In brackets after ≈: the same amount, converted by molar mass.

Key:
Assay in all cases: Antibacterial activity evaluation test, MIC by broth microdilution (CLSI)
Format in all cases: cell-based
[1] = test system: IMP-1-containing Pseudomonas aeruginosa strain (S-2838); settings: Pseudomonas aeruginosa
Summary of the method: (§1)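 MIC (μg/mL) = lowest drug concentration showing no visible bacterial growth after 16–20 h at 35° C. in cation-adjusted Mueller Hinton broth. Inoculum: agar-grown cells at 0.5 McFarland, diluted 10-fold.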

[2] = test system: Pseudomonas aeruginosa strain ATCC27853; settings: Pseudomonas aeruginosa, ATCC27853
Summary of the method: as §1

[3] = test system: GES-19 and GES-20-containing Pseudomonas aeruginosa strain (S-3759); settings: Pseudomonas aeruginosa
Summary of the method: as §1

[4] = test system: OXA-48-containing Klebsiella pneumoniae strain (Y-1062); settings: Klebsiella pneumoniae
Summary of the method: as §1

[5] = test system: AmpC-derepressed Pseudomonas aeruginosa mutant strain (S-3028); settings: Pseudomonas aeruginosa
Summary of the method: as §1

[6] = test system: KPC-2-containing Klebsiella pneumoniae strain (Y-995); settings: Klebsiella pneumoniae
Summary of the method: as §1

[7] = test system: CTX-M-15-containing Escherichia coli strain (TK-1747); settings: Escherichia coli
Summary of the method: as §1

[8] = test system: NDM-1-containing Klebsiella pneumoniae strain (Y-1007); settings: Klebsiella pneumoniae
Summary of the method: as §1

[9] = test system: VIM-2-containing Pseudomonas aeruginosa strain (S-3779); settings: Pseudomonas aeruginosa
Summary of the method: as §1

CC(C)(O/N=C(\C(=O)NC1C(=O)N2C[C@@](C(=O)O)(N3CCN(NC(=O)C(=O)c4ccc(O)c(O)c4Cl)C(=O)C3=O)S[C@H]12)c1csc(N)n1)C(=O)O (stereo partly drawn) [Example 126, (3R,5R,6R)-6-((Z)-2-(2-aminothiazol-4-yl)-2-(((2-carboxypropan-2-yl)oxy)imino)aceta-mido)-3-(4-(2-(2-chloro-3,4-dihydroxy-phenyl)-2-oxoaceta-mido)-2,3-dioxopipera-zin-1-yl)-7-oxo-4-thia-1-azabicyclo[3.2.0]-heptane-3-carboxylic acid]
MIC [1]: 2 µg/mL (≈ 2.6 µM) | MIC [2]: 1 µg/mL (≈ 1.3 µM) | MIC [3]: 0.5 µg/mL (≈ 0.65 µM) | MIC [4]: 1 µg/mL (≈ 1.3 µM) | MIC [5]: 0.5 µg/mL (≈ 0.65 µM) | MIC [6]: 0.12 µg/mL (≈ 0.156 µM) | MIC [7]: < 0.06 µg/mL | MIC [8]: < 0.06 µg/mL | MIC [9]: 1 µg/mL (≈ 1.3 µM)
